Data reported in patent US20250171434A1, “SEC61 INHIBITORS AND USE THEREOF” (KEZAR LIFE SCIENCES, INC., priority 2022, published 2025).

Tests used:
[1] = test system: PD1-ss+10aa/Gaussia Luciferase; experiment: Dox-Induced PD1-ss-Gluc Assay; type: cell-based; conditions: Flp-In 293 T-REx cells, 24 hours with doxycycline; Table 3; read-out: 24 hr Dox Inducible PD1ssGluc 293FRT/TO: Mean IC50
Procedure, shortened: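 Doxycycline-induced expression of a PD1-ss+10aa/Gaussia luciferase reporter is measured in stable Flp-In 293 T-REx cells. Compound dilutions containing doxycycline are added one day after plating and incubated at 37 °C, 5% CO2. Values for unassigned stereocentres refer to stereoisomer mixtures.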

[2] = test system: IL-2-FL/Gaussia Luciferase; experiment: Dox Inducible IL2-FL-Gluc Assay; type: cell-based; conditions: Table 3; for IC50: Flp-In 293 T-REx cells, 24 hours with doxycycline, read-out: 24 hr Dox Inducible IL2FLGluc 293FRT/TO: Mean IC50; for 24 hr Dox Inducible IL2FLGluc 293FRT/TO: IL2/PD1: ratio of IC50s IL2/PD1
Procedure, shortened: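 Doxycycline induces an IL-2(1-153)–Gaussia luciferase fusion in a stable Flp-In 293 T-REx line. Compound exposure runs alongside induction at 37° C.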

[3] = test system: HER3-ss+4aa/Gaussia Luciferase; experiment: Dox-Inducible Her3-ss-Gluc Assay; type: cell-based; conditions: Flp-In 293 T-REx cells, 24 hours with doxycycline; Table 3; read-out: 24 hr Dox Inducible Her3(ss + 4)Gluc 293FRT/TO: Mean IC50
Excerpt: Flp-In 293 T-REx™ cells were transfected with pcDNA™5/FRT/TO plasmid inserted with cDNA encoding Gaussia Luciferase fused to the 3′ end of cDNA encoding HER3 signal sequence plus 4 amino acids (N-[…]-C) (SEQ ID NO: 2). Transfected cells were selected for resistance to the selectable markers Hygromycin and Blasticidin to create a stable cell line that contained the HER3-ss+4aa/Gaussia Luciferase cDNA insert whose expression was regulated under the T-REx™ system. The day before assay, cells were trypsinized and plated in 384-well tissue culture plates. The next day, compound dilutions in DMSO/media containing doxycycline were added to the wells and incubated at 37° C., 5% CO2.
(§1) For chemical structures that include one or more stereoisomers, but are illustrated without indicating stereochemistry, the assay data refers to a mixture of stereoisomers.

[4] = test system: TNFα-FL/Gaussia Luciferase; experiment: Dox Induced TNFα-FL-Gluc Assay; type: cell-based; conditions: Table 3; for IC50: Flp-In 293 T-REx cells, 24 hours with doxycycline, read-out: 24 hr Dox Inducible TNFaFLGluc 293FRT/TO: Mean IC50; for 24 hr Dox Inducible TNFaFLGluc 293FRT/TO: TNF/PD1: ratio of IC50s TNF/PD1
Excerpt: Flp-In 293 T-REx™ cells were transfected with pcDNA™5/FRT/TO plasmid inserted with cDNA encoding Gaussia Luciferase fused to the 3′ end of cDNA encoding full length TNFα (amino acids 1-233). Transfected cells were selected for resistance to the selectable markers Hygromycin and Blasticidin to create a stable cell line that contained the TNFα-FL/Gaussia Luciferase cDNA insert whose expression was regulated under the T-REx™ system. The day before assay, cells were trypsinized and plated in 384-well tissue culture plates. The next day, compound dilutions in DMSO/media containing doxycycline were added to the wells and incubated at 37° C., 5% CO2.
as §1

[5] = test system: multiple myeloma cell line NCI-H929; experiment: H929 Cell Viability Assay; type: cell-based, human; conditions: Homo sapiens; NCI-H929 cells, 48 hours, Celltiter-Glo; read-out: 48 hr H929 Viability Celltiter-Glo: Mean EC50
Procedure, shortened: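 Viability is scored by CellTiter-Glo luminescence following a 48-hour treatment at 37° C. Data for structures shown without stereochemistry refer to stereoisomer mixtures.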

[6] = test system: multiple myeloma cell line U266B1; experiment: U266 Cell Viability Assay; type: cell-based; conditions: Homo sapiens, U-266; U266B1 cells, 48 hours, Celltiter-Glo; read-out: 48 hr U266 Viability Celltiter-Glo: Mean EC50
Procedure, shortened: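 Viability is measured as luciferase signal from CellTiter-Glo following a 48-hour incubation with compound at 37° C. under 5% CO2. Where structures lack drawn stereochemistry, values refer to stereoisomer mixtures.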

[7] = Liver Microsome Stability Assay, mouse; type: in vitro ADME; conditions: mouse liver microsomes 1.0 mg/mL, 1.0 uM compound, 37° C., 1 mM NADPH
Procedure, shortened: (§2)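 Microsomes (1.0 mg/mL) in 0.1 M potassium phosphate are mixed with 1.0 uM test compound and 0.4% DMSO. Incubation runs at 37° C with or without 1 mM NADPH, and samples are quenched at 0 and 30 minutes.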

[8] = Liver Microsome Stability Assay, rat; type: in vitro ADME; conditions: rat liver microsomes 1.0 mg/mL, 1.0 uM compound, 37° C., 1 mM NADPH
Procedure, shortened: as §2

[9] = Liver Microsome Stability Assay, monkey; type: in vitro ADME; conditions: monkey liver microsomes 1.0 mg/mL, 1.0 uM compound, 37° C., 1 mM NADPH
Procedure, shortened: as §2

[10] = Liver Microsome Stability Assay, human; type: in vitro ADME; conditions: human liver microsomes 1.0 mg/mL, 1.0 uM compound, 37° C., 1 mM NADPH
Procedure, shortened: as §2

| Compound | IC50 [1] [µM] | IC50 [2] [µM] | 24 hr Dox Inducible IL2FLGluc 293FRT/TO: IL2/PD1 [2] | IC50 [3] [µM] | IC50 [4] [µM] | 24 hr Dox Inducible TNFaFLGluc 293FRT/TO: TNF/PD1 [4] | EC50 [5] [µM] | EC50 [6] [µM] | Liver Microsome Stability (Multiple Species): Mouse - % Remaining after 30 min w/ NADPH (%) [7] [%] | Liver Microsome Stability (Multiple Species): Rat - % Remaining after 30 min w/ NADPH (%) [8] [%] | Liver Microsome Stability (Multiple Species): Monkey - % Remaining after 30 min w/ NADPH (%) [9] [%] | Liver Microsome Stability (Multiple Species): Human - % Remaining after 30 min w/ NADPH (%) [10] [%] |
| --- | --- | --- | --- | --- | --- | --- | --- | --- | --- | --- | --- | --- |
| C/C(=C\c1cn(C(C)C)cn1)c1csc(NC(=O)c2cccn2Cc2ccncc2)n1 [Compound B25, (E)-N-(4-(1-(1-isopropyl-1H-imidazol-4-yl)prop-1-en-2-yl)thiazol-2-yl)-1-(pyridin-4-ylmethyl)-1H-pyrrole-2-carboxamide] | 0.404 | > 25 | >62 | > 25 | > 25 | >61 | 13.7 | 17.3 | 0.05 | <1 | <1 | <1 |
| O=C(Nc1nc(/C=C/C2CCCC2)cs1)c1cccn1Cc1ccnc(F)c1 [Compound B26, (E)-N-(4-(2-cyclopentylvinyl)thiazol-2-yl)-1-((2-fluoropyridin-4-yl)methyl)-1H-pyrrole-2-carboxamide] | 0.117 | 0.737 | 6 | 0.332 | 3.82 | 33 | 7.13 | 19.7 | 31 | 10 | <1 | 59 |
